Values joined by “and” are separate entries in the source; they are usually repeats but may differ in a detail not shown here. Equal values may be shown once. Inconclusive results and toxic doses are left out. How the source made its calls: active means survival T/C of 150% or more; inactive means T/C below 125% in these data.
Tested on: CD2F1 mice, L1210 leukemia ip, survival T/C
Test: NCI In Vivo Anticancer Drug Screen. Data for tumor model L1210 Leukemia (intraperitoneal) in CD2F1 (CDF1) mice
Conditions: higher = longer survival
Procedure, shortened: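 Vehicle-treated tumor-bearing mice served as controls (C) for compound-treated mice (T). Reported figure is T divided by C.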

[1] = endpoint: mean survival time, dose: 100.0 mg/kg/injection, schedule: Q01DX001 (ip), vehicle: saline with Tween-80
[2] = endpoint: mean survival time, dose: 200.0 mg/kg/injection, schedule: Q01DX001 (ip), vehicle: saline with Tween-80
[3] = endpoint: mean survival time, dose: 400.0 mg/kg/injection, schedule: Q01DX001 (ip), vehicle: saline with Tween-80
[4] = endpoint: mean survival time, dose: 100.0 mg/kg/injection, schedule: Q04DX003 (ip), vehicle: saline with Tween-80
[5] = endpoint: mean survival time, dose: 200.0 mg/kg/injection, schedule: Q04DX003 (ip), vehicle: saline with Tween-80
[6] = endpoint: mean survival time, dose: 400.0 mg/kg/injection, schedule: Q04DX003 (ip), vehicle: saline with Tween-80
[7] = endpoint: mean survival time, dose: 150.0 mg/kg/injection, schedule: Q01DX001 (ip), vehicle: saline
[8] = endpoint: mean survival time, dose: 300.0 mg/kg/injection, schedule: Q01DX001 (ip), vehicle: saline
[9] = endpoint: mean survival time, dose: 50.0 mg/kg/injection, schedule: Q01DX009 (ip), vehicle: saline with Tween-80
[10] = endpoint: mean survival time, dose: 100.0 mg/kg/injection, schedule: Q01DX009 (ip), vehicle: saline with Tween-80
[11] = endpoint: mean survival time, dose: 200.0 mg/kg/injection, schedule: Q01DX009 (ip), vehicle: saline with Tween-80
[12] = endpoint: mean survival time, dose: 400.0 mg/kg/injection, schedule: Q01DX009 (ip), vehicle: saline with Tween-80

Measured: T/C

COc1cc2c(oc(=O)c3cc(C)cc(OC)c32)c2c(C3OC(C)C(O)C(C)(O)C3O)ccc(O)c12 (centres undefined)
inactive: endpoint: median survival time, dose: 3.12 mg/kg/injection, schedule: Q01DX005 (ip), vehicle: DMSO 109 % of control and 110 % of control | endpoint: median survival time, dose: 6.25 mg/kg/injection, schedule: Q01DX005 (ip), vehicle: DMSO 108 % of control and 110 % of control | endpoint: median survival time, dose: 12.5 mg/kg/injection, schedule: Q01DX005 (ip), vehicle: DMSO 121 % of control and 103 % of control and 109 % of control | endpoint: median survival time, dose: 25.0 mg/kg/injection, schedule: Q01DX005 (ip), vehicle: DMSO 113 % of control and 118 % of control and 109 % of control | endpoint: median survival time, dose: 50.0 mg/kg/injection, schedule: Q01DX005 (ip), vehicle: DMSO 116 % of control and 112 % of control | endpoint: median survival time, dose: 100.0 mg/kg/injection, schedule: Q01DX005 (ip), vehicle: DMSO 121 % of control

CCOC(=O)NC(C)(C)CN(C(=O)OCC)C(C)C
inactive: endpoint: mean survival time, dose: 100.0 mg/kg/injection, schedule: Q01DX009 (ip), vehicle: other 102 % of control | endpoint: mean survival time, dose: 200.0 mg/kg/injection, schedule: Q01DX009 (ip), vehicle: other 104 % of control

O=C1/C(=C/c2ccccc2)CCSc2ccccc21
inactive: [1] 90 % of control | [2] 94 % of control | [3] 90 % of control

Nc1c(Cl)c(Cl)c(Br)c(Cl)c1Cl
inactive: [4] 91 % of control | [5] 105 % of control | [6] 97 % of control

c1ccc(Cn2cccc2N=Nc2ccccc2)cc1
inactive: endpoint: mean survival time, dose: 100.0 mg/kg/injection, schedule: Q01DX001 (ip), vehicle: other 98 % of control | endpoint: mean survival time, dose: 200.0 mg/kg/injection, schedule: Q01DX001 (ip), vehicle: other 101 % of control | endpoint: mean survival time, dose: 400.0 mg/kg/injection, schedule: Q01DX001 (ip), vehicle: other 98 % of control

CC1=C(/C=C/C(C)=C/C=C/C(C)=C/CO)C(C)(C)CCC1
inactive: endpoint: mean survival time, dose: 150.0 mg/kg/injection, schedule: Q01DX001 (ip), vehicle: alkali diluted with saline 102 % of control | endpoint: mean survival time, dose: 150.0 mg/kg/injection, schedule: Q01DX001 (ip), vehicle: distilled water + alcohol 112 % of control | endpoint: mean survival time, dose: 150.0 mg/kg/injection, schedule: Q01DX001 (ip), vehicle: other 112 % of control | [7] 102 % of control | endpoint: mean survival time, dose: 150.0 mg/kg/injection, schedule: Q11HX001 (ip), vehicle: saline 102 % of control | endpoint: mean survival time, dose: 300.0 mg/kg/injection, schedule: Q01DX001 (ip), vehicle: alkali diluted with saline 99 % of control and 100 % of control | endpoint: mean survival time, dose: 300.0 mg/kg/injection, schedule: Q01DX001 (ip), vehicle: distilled water + alcohol 108 % of control | endpoint: mean survival time, dose: 300.0 mg/kg/injection, schedule: Q01DX001 (ip), vehicle: other 108 % of control | [8] 103 % of control | endpoint: mean survival time, dose: 300.0 mg/kg/injection, schedule: Q11HX001 (ip), vehicle: saline 103 % of control

CN1C(=O)CN=C(c2ccccn2)c2cc(Cl)ccc21
inactive: endpoint: mean survival time, dose: 100.0 mg/kg/injection, schedule: Q01DX009 (ip), vehicle: saline sonified 97 % of control | endpoint: mean survival time, dose: 200.0 mg/kg/injection, schedule: Q01DX009 (ip), vehicle: saline sonified 90 % of control | endpoint: mean survival time, dose: 400.0 mg/kg/injection, schedule: Q01DX009 (ip), vehicle: saline sonified 102 % of control

O=C1NC(=O)C(Cc2ccccc2)(Cc2ccccc2)C(=O)N1Cc1ccccc1
inactive: [9] 100 % of control | [10] 91 % of control | [11] 100 % of control

CC1(C(=O)O)OC12CCCCC2 (centres undefined)
inactive: [10] 107 % of control | [11] 108 % of control | [12] 108 % of control

OC1C2CC3C(C2)C13 (centres undefined)
inactive: [10] 102 % of control and 106 % of control | [11] 96 % of control | [12] 98 % of control and 102 % of control

CSC(=S)N(C)N
inactive: [10] 104 % of control | [4] 102 % of control | [11] 103 % of control | [5] 100 % of control | [12] 104 % of control | [6] 102 % of control

O=CC(CO)OC(C=O)n1cnc2c(=O)[nH]c(=O)[nH]c21 (centres undefined)
inactive: endpoint: mean survival time, dose: 12.5 mg/kg/injection, schedule: Q01DX005 (ip), vehicle: water 101 % of control | endpoint: mean survival time, dose: 25.0 mg/kg/injection, schedule: Q01DX005 (ip), vehicle: water 106 % of control | endpoint: mean survival time, dose: 50.0 mg/kg/injection, schedule: Q01DX005 (ip), vehicle: water 106 % of control | endpoint: mean survival time, dose: 100.0 mg/kg/injection, schedule: Q01DX005 (ip), vehicle: water 115 % of control

OC1CCCC/C1=C/C=C/c1ccccc1 (centres undefined)
inactive: [10] 92 % of control and 91 % of control | [11] 94 % of control and 92 % of control | [12] 93 % of control

COC12CC3C4CCC5CC(O)CCC5(C)C4CCC3(C)C1C(C)C1(CCC(C)CO1)O2 (centres undefined)
inactive: [4] 100 % of control | [5] 96 % of control | [6] 92 % of control

CCOc1ccc(Cl)cc1
inactive: [9] 96 % of control | [10] 98 % of control

COc1ccn(C2OC(=O)C(C)(C)C2=O)c(=O)n1 (centres undefined)
inactive: endpoint: median survival time, dose: 12.5 mg/kg/injection, schedule: Q01DX005 (ip), vehicle: saline 101 % of control | endpoint: median survival time, dose: 25.0 mg/kg/injection, schedule: Q01DX005 (ip), vehicle: saline 100 % of control | endpoint: median survival time, dose: 50.0 mg/kg/injection, schedule: Q01DX005 (ip), vehicle: saline 101 % of control | endpoint: median survival time, dose: 100.0 mg/kg/injection, schedule: Q01DX005 (ip), vehicle: saline 101 % of control | endpoint: median survival time, dose: 200.0 mg/kg/injection, schedule: Q01DX005 (ip), vehicle: saline 100 % of control

Nc1nc(-c2cccc([N+](=O)[O-])c2)c(N=Nc2ccccc2Cl)s1
inactive: [1] 89 % of control | [3] 96 % of control

OC12CCCCC1(O)CCCC2 (centres undefined)
inactive: [1] 100 % of control | [10] 102 % of control | [2] 97 % of control | [11] 102 % of control | [3] 97 % of control | [12] 102 % of control

CCC/C=C/CCOC(=N)C(Cl)(Cl)Cl
inactive: [9] 92 % of control | [10] 92 % of control | [11] 88 % of control

COC(=O)CC(CC(=O)OC)N1CCCC1
inactive: endpoint: mean survival time, dose: 100.0 mg/kg/injection, schedule: Q01DX001 (ip), vehicle: saline 102 % of control | endpoint: mean survival time, dose: 200.0 mg/kg/injection, schedule: Q01DX001 (ip), vehicle: saline 102 % of control | endpoint: mean survival time, dose: 400.0 mg/kg/injection, schedule: Q01DX001 (ip), vehicle: saline 102 % of control

OC1CCCC2CCCCC12 (centres undefined)
inactive: [4] 100 % of control | [5] 109 % of control | [6] 94 % of control

CC(C)(C)C1CCC(OC(=O)c2ccccc2C(=O)O)CC1 (centres undefined)
inactive: [10] 100 % of control | [4] 100 % of control | [11] 97 % of control | [5] 98 % of control | [12] 89 % of control | [6] 96 % of control

Cc1ccc(S(=O)(=O)/N=S(/C)CC/S(C)=N/S(=O)(=O)c2ccc(C)cc2)cc1 (centres undefined)
inactive: endpoint: mean survival time, dose: 100.0 mg/kg/injection, schedule: Q01DX001 (ip), vehicle: Klucel (hydroxypropylcellulose) (HPC) 97 % of control | endpoint: mean survival time, dose: 200.0 mg/kg/injection, schedule: Q01DX001 (ip), vehicle: Klucel (hydroxypropylcellulose) (HPC) 102 % of control | endpoint: mean survival time, dose: 400.0 mg/kg/injection, schedule: Q01DX001 (ip), vehicle: Klucel (hydroxypropylcellulose) (HPC) 100 % of control

CC/C=C(\CC(=O)OCC)C(=O)OCC
inactive: [4] 102 % of control | [5] 106 % of control | [6] 101 % of control

CCOc1c(Cl)cc(Cl)cc1C(c1ccc(Cl)cc1S(=O)(=O)O)c1cc(Cl)cc(Cl)c1OCC
inactive: endpoint: mean survival time, dose: 25.0 mg/kg/injection, schedule: Q01DX009 (ip), vehicle: saline with Tween-80 98 % of control | [9] 89 % of control | [10] 86 % of control

CC(=O)CC(C)=NCCN=C(C)CC(C)=O.[Pd]
inactive: endpoint: mean survival time, dose: 3.13 mg/kg/injection, schedule: Q04DX003 (ip), vehicle: distilled water + Tween-80 93 % of control | endpoint: mean survival time, dose: 6.25 mg/kg/injection, schedule: Q04DX003 (ip), vehicle: distilled water + Tween-80 108 % of control | endpoint: mean survival time, dose: 12.5 mg/kg/injection, schedule: Q04DX003 (ip), vehicle: distilled water + Tween-80 100 % of control

C/C=C/CNc1ccccc1
inactive: endpoint: mean survival time, dose: 50.0 mg/kg/injection, schedule: Q01DX009 (ip), vehicle: saline 102 % of control | endpoint: mean survival time, dose: 100.0 mg/kg/injection, schedule: Q01DX009 (ip), vehicle: saline 101 % of control | [4] 95 % of control | endpoint: mean survival time, dose: 200.0 mg/kg/injection, schedule: Q01DX009 (ip), vehicle: saline 96 % of control | [5] 97 % of control

Cc1ccc(S(=O)(=O)N2CCC(=O)c3ccccc32)cc1
inactive: [10] 95 % of control | [4] 101 % of control | [11] 97 % of control | [5] 98 % of control | [12] 95 % of control | [6] 103 % of control

CSC(=S)NNC(=O)c1cccc(S(=O)(=O)F)c1
inactive: endpoint: mean survival time, dose: 75.0 mg/kg/injection, schedule: Q01DX001 (ip), vehicle: saline 97 % of control | [7] 96 % of control | [8] 96 % of control

Cc1c(Cl)c(N)c(Cl)c(Cl)c1Cl
inactive: [4] 101 % of control | [5] 104 % of control | [6] 96 % of control

Source: PubChem BioAssay AID256 (DTP/NCI, 2004)
